Data as given in US20080255206A1, “Rxr Agonists and Antagonists, Alone or in Combination with Ppar Ligands, in the Treatment of Metabolic and Cardiovascular Diseases” (priority 2005, published 2008).
pEC50, pIC50: −log10 of the molar value.

Assays:
RARβ = target: T1, RARβ (Homo sapiens, UniProt P10826); assay: Retinoid activation assay, RARβ (COS-1 cells, SeAP reporter); type: cell-based; conditions: read-out: Activation EC50 RAR β
T1 sequence (P10826 183-417 limits assumed): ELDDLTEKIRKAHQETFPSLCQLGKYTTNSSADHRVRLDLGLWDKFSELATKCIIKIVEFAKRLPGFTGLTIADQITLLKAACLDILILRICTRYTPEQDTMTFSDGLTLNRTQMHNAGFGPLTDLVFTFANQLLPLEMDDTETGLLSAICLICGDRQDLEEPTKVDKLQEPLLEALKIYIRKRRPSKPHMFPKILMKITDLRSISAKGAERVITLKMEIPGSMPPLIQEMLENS
Method: (§1) Chimeric RAR cDNAs are used for transfection which contain the DNA binding region of the estrogen receptor. As reporter system, the SeAp (secreted alkaline phosphatase) gene under control of the vitellogenin estrogen response element fused to the herpes simplex thymidinkinase promoter (vit-TK-SeAP) is used. The galactosidase expression vector pCH110 serves to correct for variation in transfection efficiency. […] At the end of the incubation, the cell supernatants are assayed for SeAP activity. Results are given as EC50 (nM), the concentration leading to half-maximal activation.

RARγ = target: T2, RARγ (Homo sapiens, UniProt P13631); assay: Retinoid activation assay, RARγ (COS-1 cells, SeAP reporter); type: cell-based; conditions: read-out: Activation EC50 RAR γ
T2 sequence (P13631 185-454 limits assumed): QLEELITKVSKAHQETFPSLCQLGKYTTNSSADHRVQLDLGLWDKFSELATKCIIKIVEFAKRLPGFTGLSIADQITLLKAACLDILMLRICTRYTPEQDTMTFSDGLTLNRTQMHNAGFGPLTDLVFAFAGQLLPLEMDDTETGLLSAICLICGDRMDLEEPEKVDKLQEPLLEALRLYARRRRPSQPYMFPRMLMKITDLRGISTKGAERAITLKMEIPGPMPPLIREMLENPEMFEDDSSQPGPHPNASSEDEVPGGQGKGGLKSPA
Method: as §1

RXRα [1] = target: T3, RXRα (Homo sapiens, UniProt P19793); assay: Retinoid activation assay, RXRα (Schneider SL-3 cells, luciferase reporter); type: cell-based; conditions: read-out: Activation EC50 RXR α
T3 sequence (P19793 1-462): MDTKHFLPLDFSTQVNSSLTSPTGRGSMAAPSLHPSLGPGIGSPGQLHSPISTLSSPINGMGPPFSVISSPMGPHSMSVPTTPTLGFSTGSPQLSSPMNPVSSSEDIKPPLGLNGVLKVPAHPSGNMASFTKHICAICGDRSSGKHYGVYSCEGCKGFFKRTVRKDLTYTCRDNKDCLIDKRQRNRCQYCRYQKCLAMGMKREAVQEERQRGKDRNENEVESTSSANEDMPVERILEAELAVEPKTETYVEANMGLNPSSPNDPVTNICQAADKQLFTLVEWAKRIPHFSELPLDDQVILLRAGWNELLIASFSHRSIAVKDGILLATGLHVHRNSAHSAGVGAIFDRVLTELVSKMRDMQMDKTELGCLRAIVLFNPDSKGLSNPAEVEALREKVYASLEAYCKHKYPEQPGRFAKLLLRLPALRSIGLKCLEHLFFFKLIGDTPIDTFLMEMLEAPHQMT
Method: (§2) Full length RXR cDNA is used for transfection. As reporter system, the luciferase gene is used in a construct with three copies of a RXR response element from rat CRBP gene, (formerly RARE from betaRAR gene), fused to alcoholdehydrogenase gene promoter in the plasmid pGL2-basic. Schneider SL-3 cells from Drosophila are transiently transfected 3-4 h before the experiment by the Ca-phosphate-DNA coprecipitation method. […] At the end of the incubation, the cell supernatants are assayed for luciferase activity. Results are given as EC50 (nM), the concentration leading to half-maximal activation.

RXRγ [2] = target: T4, RXRγ (Homo sapiens, UniProt P48443); assay: Retinoid activation assay, RXRγ (Schneider SL-3 cells, luciferase reporter); type: cell-based; conditions: read-out: Activation EC50 RXR γ
T4 sequence (P48443 1-463): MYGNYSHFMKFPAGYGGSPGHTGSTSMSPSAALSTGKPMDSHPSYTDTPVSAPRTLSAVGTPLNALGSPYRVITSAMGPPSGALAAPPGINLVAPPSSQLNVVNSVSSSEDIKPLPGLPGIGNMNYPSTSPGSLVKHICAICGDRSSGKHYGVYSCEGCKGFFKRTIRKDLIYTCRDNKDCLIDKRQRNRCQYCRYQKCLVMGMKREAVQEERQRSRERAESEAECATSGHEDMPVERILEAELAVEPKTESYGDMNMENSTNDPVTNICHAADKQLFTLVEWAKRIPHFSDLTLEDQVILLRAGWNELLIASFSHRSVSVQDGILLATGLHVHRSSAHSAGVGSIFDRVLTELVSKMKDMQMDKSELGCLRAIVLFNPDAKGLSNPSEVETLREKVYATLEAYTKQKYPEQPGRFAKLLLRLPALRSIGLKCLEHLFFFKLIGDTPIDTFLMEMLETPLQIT
Method: as §2

RXRα [3] = target: T3, RXRα; assay: Retinoid binding assay, RXRα; parameters: made in house; host or cells: E. coli; conditions: [3H] 9-cis retinoic acid 20 nM; read-out: Binding Affinity IC50 RXR α
Description: (§3) The DEF domains of RAR's and the full length RXR's, expressed in E.coli, are used to measure competitive retinoid binding. […] 9-cis retinoic acid (for RXR's), respectively. […] Separation of bound from free radioactivity is achieved by charcoal/dextran (RAR's) or by desalting columns (RXR's). […] Retinoid Activation Assays

RXRγ [4] = target: T4, RXRγ; assay: Retinoid binding assay, RXRγ; parameters: made in house; host or cells: E. coli; conditions: [3H] 9-cis retinoic acid 20 nM; read-out: Binding Affinity IC50 RXR γ
Description: as §3

Compound | pEC50 (RARβ) | pEC50 (RARγ) | pEC50 (RXRα [1]) | pEC50 (RXRγ [2]) | pIC50 (RXRα [3]) | pIC50 (RXRγ [4])
CC(/C=C/[C@@H]1C[C@@H]1c1ccc2c(c1)C(C)(C)CCC2(C)C)=C\C(=O)O (racemic) [Compound 4, (2E,4E)-3-methyl-5-[(1RS,2RS)-2-(5,5,8,8-tetramethyl-5,6,7,8-tetrahydro-naphthalen-2-yl)-cyclopropyl]-penta-2,4-dienoic acid] | 5.92 | 6.00 | 8.46 | 7.30 | 7.08 | 6.90
CCCCOc1c([C@@H]2C[C@@H]2/C=C/C(C)=C/C(=O)O)cc(C(C)(C)C)cc1C(C)(C)C (racemic) [Compound 16, (2E,4E)-(1RS,2RS)-5-[2-(3,5-Di-tert-butyl-2-butoxy-phenyl)-cyclopropyl]-3-methyl-penta-2,4-dienoic acid] |  |  | ≤ 5.00 | ≤ 5.00 | 7.19 | 7.09
CCOc1c([C@@H]2C[C@@H]2/C=C/C(C)=C/C(=O)O)cc(C(C)(C)C)cc1C(C)(C)C (racemic) [Compound 17, (2E,4E)-(1RS,2RS)-5-[2-(3,5-Di-tert-butyl-2-ethoxy-phenyl)-cyclopropyl]-3-methyl-penta-2,4-dienoic acid] |  |  | ≤ 5.00 | ≤ 5.00 | 7.31 | 7.16
CC1=C(/C=C/C2=C(/C=C/C(C)=C/C(=O)O)CCCCC2)C(C)(C)CCC1 [Compound 1, (2E,4E)-3-methyl-5-[2-[(E)-2-(2,6,6-trimethyl-1-cyclohexen-1-yl)ethenyl]-1-cyclohepten-1-yl]-2,4-pentadienoic acid] |  |  | 8.85 | ≤ 5.00 | 6.96 | 6.82
CC1=C(/C=C/c2sccc2/C=C/C(C)=C/C(=O)O)C(C)(C)CCC1 [Compound 5, (2E,4E)-3-Methyl-5-[2-[(E)-2-(2,6,6-trimethyl-1-cyclohexen-1-yl)ethenyl]-3-thienyl]-2,4-pentadienoic acid] | 7.07 | 6.77 | 9.10 | ≤ 5.00 | 6.82 | 6.80
CC(/C=C/C1=C(c2ccc3c(c2)C(C)(C)CCC3(C)C)CCCC1)=C\C(=O)O [Compound 6, (2E,4E)-3-Methyl-5-[2-(5,5,8,8-tetramethyl-5,6,7,8-tetrahydro-naphthalen-2-yl)-cyclohex-1-enyl]-penta-2,4-dienoic acid] |  |  | 7.72 | 6.85 | 6.48 | 6.62
CC(/C=C/c1ccccc1-c1ccc2c(c1)C(C)(C)CCC2(C)C)=C\C(=O)O [Compound 7, (2E,4E)-3-methyl-5-[2-(5,5,8,8-tetramethyl-5,6,7,8-tetrahydro-naphthalen-2-yl)-phenyl]-penta-2,4-dienoic acid] |  |  | 8.22 | 6.40 | 6.11 | 6.01
CC(/C=C/c1sccc1-c1ccc2c(c1)C(C)(C)CCC2(C)C)=C\C(=O)O [Compound 9] | 6.44 | 6.05 | 8.60 | 7.05 | 6.64 | 6.64
CC(/C=C/C1=C(c2ccc3c(c2)C(C)(C)CCC3(C)C)CCC1)=C\C(=O)O [Compound 12, (2E,4E)-3-Methyl-5-[2-(5,5,8,8-tetramethyl-5,6,7,8-tetrahydro-naphthalen-2-yl)-cyclopent-1-enyl]-penta-2,4-dienoic acid] | 7.08 | 6.70 | 8.05 | 6.82 | 7.10 | 6.92
C/C(=C/C=C/C(C)=C/C(=O)O)c1cc2c(cc1C)C(C)(C)CCCC2 [Compound 13, (2E,4E,6Z)-3-Methyl-7-(3,5,5,-trimethyl-6,7,8,9-tetrahydro-5H-benzocyclohepten-2-yl)-octa-2,4,6-trienoic acid] |  |  | 8.82 | 6.40 | 6.74 | 6.83
CC1=C(/C=C/C2=C(/C=C/C(C)=C/C(=O)O)CCC2)C(C)(C)CCC1 [Compound 14, (2E,4E)-3-Methyl-5-[2-[(E)-2-(2,6,6-trimethyl-1-cyclohexen-1-yl)ethenyl]-1-cyclopenten-1-yl]-2,4-pentadienoic acid] | 7.05 | 6.82 | 8.22 | 7.30 | 6.96 | 6.85
CCCCOc1c(\C(C)=C/C=C/C(C)=C/C(=O)O)cc(C(C)(C)C)cc1C(C)(C)C [Compound 15, (2E,4E,6Z)-7-[2-butoxy-3,5-bis(1,1-dimethylethyl)phenyl]-3-methyl-2,4,6-octatrienoic acid] |  |  | ≤ 5.00 | ≤ 5.00 | 7.52 | 7.33
CC1=C(C#CC2=C(/C=C/C(C)=C/C(=O)O)CCCCC2)C(C)(C)CCC1 [Compound 18] |  |  | ≤ 5.00 | ≤ 5.00 | 7.02 | 7.19
CCOc1c(\C(C)=C/C=C/C(C)=C/C(=O)O)cc(C(C)(C)C)cc1C(C)(C)C [Compound 21, (2E,4E,6Z)-7-[3,5-Bis(1,1-dimethylethyl)-2-ethoxyphenyl]-3-methyl-2,4,6-octatrienoic acid/ethyl ester] |  |  | ≤ 5.00 | ≤ 5.00 | 7.62 | 7.24
CCC1(CC)CCC(C)(C)c2cc(\C(C)=C/C=C/C(C)=C/C(=O)O)ccc21 [Compound 24, (2E,4E,6Z)-7-(5,5-Diethyl-8,8-dimethyl-5,6,7,8-tetrahydro-naphthalen-2-yl)-3-methyl-octa-2,4,6-trienoic acid] | 8.00 | 7.79 | ≤ 5.00 | ≤ 5.00 | 6.17 | 6.18
